Measurements taken from ChEMBL document CHEMBL3885881, “DrugMatrix”.

Species on record: Rattus norvegicus
Assay: DrugMatrix - Regimen: Daily Repeat
Type: toxicity, organism-based, Sprague-Dawley
Design: regimen Daily Repeat, gender Male, age 6-8 weeks
Conditions: in vivo, iv, vehicle 100 % SALINE; for ABSOLUTE BASOPHIL / ABSOLUTE EOSINOPHIL / ABSOLUTE LYMPHOCYTE / ABSOLUTE MONOCYTE / ABSOLUTE SEGMENTED NEUTROPHIL / BASOPHIL / EOSINOPHIL / ERYTHROCYTE COUNT / HEMATOCRIT / HEMOGLOBIN / LEUKOCYTE COUNT / LYMPHOCYTE / MEAN CORPUSCULAR HEMOGLOBIN / MEAN CORPUSCULAR HEMOGLOBIN CONCENTRATION / MEAN CORPUSCULAR VOLUME / MONOCYTE / NEUTROPHIL / NUCLEATED RED BLOOD CELLS / PLATELET COUNT: tissue Blood; for ALANINE AMINOTRANSFERASE / ALBUMIN / ALKALINE PHOSPHATASE / ASPARTATE AMINOTRANSFERASE / BLOOD UREA NITROGEN / CARBON DIOXIDE / CHLORIDE / CHOLESTEROL / CREATINE PHOSPHOKINASE / CREATININE / GLUCOSE / LACTATE DEHYDROGENASE / LIPASE / PHOSPHORUS / POTASSIUM / SODIUM / TOTAL BILIRUBIN / TOTAL PROTEIN / URIC ACID: tissue Plasma
[1] = 5 mg/kg, 72 h, dose level Low, time 3 day
[2] = 5 mg/kg, 120 h, dose level Low, time 5 day
[3] = 30 mg/kg, 72 h, dose level High, time 3 day
[4] = 30 mg/kg, 120 h, dose level High, time 5 day

Structure (SMILES): CNC1(c2ccccc2Cl)CCCCC1=O (configuration not stated) [KETAMINE]
- ABSOLUTE BASOPHIL [1]: 0 CELLS/uL
- ABSOLUTE EOSINOPHIL [1]: 51.33 CELLS/uL
- ABSOLUTE LYMPHOCYTE [1]: 14067.33 CELLS/uL
- ABSOLUTE MONOCYTE [1]: 102.67 CELLS/uL
- ABSOLUTE SEGMENTED NEUTROPHIL [1]: 1912 CELLS/uL
- BASOPHIL [1]: 0%
- EOSINOPHIL [1]: 0.33%
- ERYTHROCYTE COUNT [1]: 5.81 x10E6/uL
- HEMATOCRIT [1]: 36.67%
- HEMOGLOBIN [1]: 14.57 G/DL
- LEUKOCYTE COUNT [1]: 16.13 x10E3/uL
- LYMPHOCYTE [1]: 87%
- MEAN CORPUSCULAR HEMOGLOBIN [1]: 25.1 pg
- MEAN CORPUSCULAR HEMOGLOBIN CONCENTRATION [1]: 39.73 G/DL
- MEAN CORPUSCULAR VOLUME [1]: 63.13 fL
- MONOCYTE [1]: 0.67%
- NEUTROPHIL [1]: 12%
- NUCLEATED RED BLOOD CELLS [1]: 0 /100WBC
- PLATELET COUNT [1]: 1224 x10E3/uL
- ALANINE AMINOTRANSFERASE [1]: 65.67 u/L
- ALBUMIN [1]: 4.37 G/DL
- ALKALINE PHOSPHATASE [1]: 476.33 u/L
- ASPARTATE AMINOTRANSFERASE [1]: 112 u/L
- BLOOD UREA NITROGEN [1]: 16.67 mg/dL
- CARBON DIOXIDE [1]: 24.33 mmol/L
- CHLORIDE [1]: 102.33 MEQ/L
- CHOLESTEROL [1]: 77 mg/dL
- CREATINE PHOSPHOKINASE [1]: 659.67 u/L
- CREATININE [1]: 0.19 mg/dL
- GLUCOSE [1]: 151 mg/dL
- LACTATE DEHYDROGENASE [1]: 281 u/L
- LIPASE [1]: 8.67 u/L
- PHOSPHORUS [1]: 13.03 mg/dL
- POTASSIUM [1]: 6.82 MEQ/L
- SODIUM [1]: 147.17 MEQ/L
- TOTAL BILIRUBIN [1]: 0.2 mg/dL
- TOTAL PROTEIN [1]: 6.1 G/DL
- URIC ACID [1]: 1.77 mg/dL
- ABSOLUTE BASOPHIL [2]: 0 CELLS/uL
- ABSOLUTE EOSINOPHIL [2]: 0 CELLS/uL
- ABSOLUTE LYMPHOCYTE [2]: 13962.33 CELLS/uL
- ABSOLUTE MONOCYTE [2]: 431.67 CELLS/uL
- ABSOLUTE SEGMENTED NEUTROPHIL [2]: 1839.33 CELLS/uL
- BASOPHIL [2]: 0%
- EOSINOPHIL [2]: 0%
- ERYTHROCYTE COUNT [2]: 5.58 x10E6/uL
- HEMATOCRIT [2]: 35.2%
- HEMOGLOBIN [2]: 13.8 G/DL
- LEUKOCYTE COUNT [2]: 16.23 x10E3/uL
- LYMPHOCYTE [2]: 86%
- MEAN CORPUSCULAR HEMOGLOBIN [2]: 24.77 pg
- MEAN CORPUSCULAR HEMOGLOBIN CONCENTRATION [2]: 39.27 G/DL
- MEAN CORPUSCULAR VOLUME [2]: 63.1 fL
- MONOCYTE [2]: 2.67%
- NEUTROPHIL [2]: 11.33%
- NUCLEATED RED BLOOD CELLS [2]: 0 /100WBC
- PLATELET COUNT [2]: 1165.33 x10E3/uL
- ALANINE AMINOTRANSFERASE [2]: 62.33 u/L
- ALBUMIN [2]: 4 G/DL
- ALKALINE PHOSPHATASE [2]: 365.67 u/L
- ASPARTATE AMINOTRANSFERASE [2]: 75.67 u/L
- BLOOD UREA NITROGEN [2]: 16 mg/dL
- CARBON DIOXIDE [2]: 23.67 mmol/L
- CHLORIDE [2]: 103 MEQ/L
- CHOLESTEROL [2]: 71 mg/dL
- CREATINE PHOSPHOKINASE [2]: 194 u/L
- CREATININE [2]: 0.14 mg/dL
- GLUCOSE [2]: 158.33 mg/dL
- LACTATE DEHYDROGENASE [2]: 81 u/L
- LIPASE [2]: 8.33 u/L
- PHOSPHORUS [2]: 11.53 mg/dL
- POTASSIUM [2]: 6.9 MEQ/L
- SODIUM [2]: 144.5 MEQ/L
- TOTAL BILIRUBIN [2]: 0.2 mg/dL
- TOTAL PROTEIN [2]: 6.03 G/DL
- URIC ACID [2]: 1.43 mg/dL
- ABSOLUTE BASOPHIL [3]: 0 CELLS/uL
- ABSOLUTE EOSINOPHIL [3]: 0 CELLS/uL
- ABSOLUTE LYMPHOCYTE [3]: 14382.67 CELLS/uL
- ABSOLUTE MONOCYTE [3]: 155.33 CELLS/uL
- ABSOLUTE SEGMENTED NEUTROPHIL [3]: 1995.33 CELLS/uL
- BASOPHIL [3]: 0%
- EOSINOPHIL [3]: 0%
- ERYTHROCYTE COUNT [3]: 5.41 x10E6/uL
- HEMATOCRIT [3]: 34.6%
- HEMOGLOBIN [3]: 13.7 G/DL
- LEUKOCYTE COUNT [3]: 16.53 x10E3/uL
- LYMPHOCYTE [3]: 87.33%
- MEAN CORPUSCULAR HEMOGLOBIN [3]: 25.3 pg
- MEAN CORPUSCULAR HEMOGLOBIN CONCENTRATION [3]: 39.6 G/DL
- MEAN CORPUSCULAR VOLUME [3]: 63.93 fL
- MONOCYTE [3]: 1%
- NEUTROPHIL [3]: 11.67%
- NUCLEATED RED BLOOD CELLS [3]: 0 /100WBC
- PLATELET COUNT [3]: 1095 x10E3/uL
- ALANINE AMINOTRANSFERASE [3]: 62.67 u/L
- ALBUMIN [3]: 4.23 G/DL
- ALKALINE PHOSPHATASE [3]: 372.33 u/L
- ASPARTATE AMINOTRANSFERASE [3]: 96.67 u/L
- BLOOD UREA NITROGEN [3]: 17 mg/dL
- CARBON DIOXIDE [3]: 19 mmol/L
- CHLORIDE [3]: 101.67 MEQ/L
- CHOLESTEROL [3]: 72.67 mg/dL
- CREATINE PHOSPHOKINASE [3]: 366.67 u/L
- CREATININE [3]: 0.23 mg/dL
- GLUCOSE [3]: 202.67 mg/dL
- LACTATE DEHYDROGENASE [3]: 284.33 u/L
- LIPASE [3]: 10 u/L
- PHOSPHORUS [3]: 13.57 mg/dL
- POTASSIUM [3]: 5.66 MEQ/L
- SODIUM [3]: 144.1 MEQ/L
- TOTAL BILIRUBIN [3]: 0.2 mg/dL
- TOTAL PROTEIN [3]: 6 G/DL
- URIC ACID [3]: 2.03 mg/dL
- ABSOLUTE BASOPHIL [4]: 0 CELLS/uL
- ABSOLUTE EOSINOPHIL [4]: 79.33 CELLS/uL
- ABSOLUTE LYMPHOCYTE [4]: 16271.33 CELLS/uL
- ABSOLUTE MONOCYTE [4]: 278 CELLS/uL
- ABSOLUTE SEGMENTED NEUTROPHIL [4]: 1271.33 CELLS/uL
- BASOPHIL [4]: 0%
- EOSINOPHIL [4]: 0.33%
- ERYTHROCYTE COUNT [4]: 5.66 x10E6/uL
- HEMATOCRIT [4]: 35.67%
- HEMOGLOBIN [4]: 14 G/DL
- LEUKOCYTE COUNT [4]: 17.9 x10E3/uL
- LYMPHOCYTE [4]: 92%
- MEAN CORPUSCULAR HEMOGLOBIN [4]: 24.8 pg
- MEAN CORPUSCULAR HEMOGLOBIN CONCENTRATION [4]: 39.27 G/DL
- MEAN CORPUSCULAR VOLUME [4]: 63.03 fL
- MONOCYTE [4]: 1.33%
- NEUTROPHIL [4]: 6.33%
- NUCLEATED RED BLOOD CELLS [4]: 0 /100WBC
- PLATELET COUNT [4]: 1154.33 x10E3/uL
- ALANINE AMINOTRANSFERASE [4]: 51 u/L
- ALBUMIN [4]: 4.2 G/DL
- ALKALINE PHOSPHATASE [4]: 328.67 u/L
- ASPARTATE AMINOTRANSFERASE [4]: 76.67 u/L
- BLOOD UREA NITROGEN [4]: 16.33 mg/dL
- CARBON DIOXIDE [4]: 22.67 mmol/L
- CHLORIDE [4]: 105 MEQ/L
- CHOLESTEROL [4]: 69.67 mg/dL
- CREATINE PHOSPHOKINASE [4]: 264.33 u/L
- CREATININE [4]: 0.2 mg/dL
- GLUCOSE [4]: 179.33 mg/dL
- LACTATE DEHYDROGENASE [4]: 119.67 u/L
- LIPASE [4]: 8.67 u/L
- PHOSPHORUS [4]: 12.4 mg/dL
- POTASSIUM [4]: 6.35 MEQ/L
- SODIUM [4]: 146.23 MEQ/L
- TOTAL BILIRUBIN [4]: 0.17 mg/dL
- TOTAL PROTEIN [4]: 6.1 G/DL
- URIC ACID [4]: 1.3 mg/dL
